In assay [1] the target is Protein kinase C beta type (Homo sapiens) (UniProt P05771). The assay can be described thus: Inhibition of PKCb conserved Lys2 (DLKLDNVMLDSEGHIK) in human PBMC at 1 uM.
Assay [2] deals with STE20-like serine/threonine-protein kinase (Homo sapiens) (UniProt Q9H2G2). Kind of assay: Inhibition of SLK conserved Lys1 (AQNKETSVLAAAKVIDTK) in human PBMC at 1 uM.
Assay [3] concerns the target T1, Mitogen-activated protein kinase kinase kinase 6 (Homo sapiens) (UniProt O95382).
T1 sequence (whole entry): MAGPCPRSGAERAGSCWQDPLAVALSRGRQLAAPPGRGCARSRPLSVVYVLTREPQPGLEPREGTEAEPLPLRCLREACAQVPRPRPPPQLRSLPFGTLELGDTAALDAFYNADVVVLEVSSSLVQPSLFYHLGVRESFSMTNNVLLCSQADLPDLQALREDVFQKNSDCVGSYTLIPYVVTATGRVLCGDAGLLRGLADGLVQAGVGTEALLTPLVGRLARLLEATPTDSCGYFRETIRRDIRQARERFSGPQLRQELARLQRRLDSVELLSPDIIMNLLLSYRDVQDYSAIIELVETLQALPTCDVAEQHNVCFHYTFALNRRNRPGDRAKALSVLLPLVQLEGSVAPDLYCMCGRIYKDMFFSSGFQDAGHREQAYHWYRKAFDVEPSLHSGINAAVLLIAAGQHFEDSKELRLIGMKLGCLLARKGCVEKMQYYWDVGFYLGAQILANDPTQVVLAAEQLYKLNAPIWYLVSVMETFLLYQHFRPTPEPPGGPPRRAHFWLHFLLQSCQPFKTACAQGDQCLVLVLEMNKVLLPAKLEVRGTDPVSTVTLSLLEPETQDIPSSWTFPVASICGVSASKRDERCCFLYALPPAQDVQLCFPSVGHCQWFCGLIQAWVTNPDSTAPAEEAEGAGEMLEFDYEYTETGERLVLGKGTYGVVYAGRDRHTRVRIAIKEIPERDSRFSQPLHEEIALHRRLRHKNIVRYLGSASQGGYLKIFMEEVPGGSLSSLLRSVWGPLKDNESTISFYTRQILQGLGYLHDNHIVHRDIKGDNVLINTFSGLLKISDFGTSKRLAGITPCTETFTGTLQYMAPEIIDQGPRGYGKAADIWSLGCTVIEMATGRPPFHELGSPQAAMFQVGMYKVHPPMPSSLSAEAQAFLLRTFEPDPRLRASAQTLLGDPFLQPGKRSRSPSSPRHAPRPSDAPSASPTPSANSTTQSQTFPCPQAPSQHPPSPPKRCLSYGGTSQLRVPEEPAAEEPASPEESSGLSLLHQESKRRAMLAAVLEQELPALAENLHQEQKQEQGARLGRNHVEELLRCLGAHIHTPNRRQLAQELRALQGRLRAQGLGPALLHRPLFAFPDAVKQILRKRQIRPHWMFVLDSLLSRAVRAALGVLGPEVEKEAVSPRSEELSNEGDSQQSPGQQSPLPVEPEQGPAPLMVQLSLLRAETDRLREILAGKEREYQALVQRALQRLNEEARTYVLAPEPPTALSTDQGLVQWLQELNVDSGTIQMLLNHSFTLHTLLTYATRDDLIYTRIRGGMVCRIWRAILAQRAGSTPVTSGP
The assay can be described thus: Inhibition of MAP3K6 conserved Lys1 (IAIKEIPER) in human PBMC at 1 uM.

For assay [4], the target named is Dual specificity mitogen-activated protein kinase kinase 1 (Homo sapiens) (UniProt Q02750). Kind of assay: Inhibition of MAP2K1 conserved Lys2 (IMHRDVKPSNILVNSR) in human PBMC at 0.1 uM.
The target in assay [5] is Ribosomal protein S6 kinase beta-2 (Homo sapiens) (UniProt Q9UBS0). The assay can be described thus: Inhibition of p70S6Kb ATP binding site (GGYGKVFQVR) in human PBMC at 1 uM.
Assay [6] addresses Ribosomal protein S6 kinase alpha-3 (Homo sapiens) (UniProt P51812). The assay can be described thus: Inhibition of RSK2 domain1 ATP binding site (VLGQGSFGKVFLVK) in human PBMC at 0.1 uM.
Assay [7] concerns the target T2, Serine/threonine-protein kinase LATS1 (Homo sapiens) (UniProt O95835).
T2 sequence (whole entry): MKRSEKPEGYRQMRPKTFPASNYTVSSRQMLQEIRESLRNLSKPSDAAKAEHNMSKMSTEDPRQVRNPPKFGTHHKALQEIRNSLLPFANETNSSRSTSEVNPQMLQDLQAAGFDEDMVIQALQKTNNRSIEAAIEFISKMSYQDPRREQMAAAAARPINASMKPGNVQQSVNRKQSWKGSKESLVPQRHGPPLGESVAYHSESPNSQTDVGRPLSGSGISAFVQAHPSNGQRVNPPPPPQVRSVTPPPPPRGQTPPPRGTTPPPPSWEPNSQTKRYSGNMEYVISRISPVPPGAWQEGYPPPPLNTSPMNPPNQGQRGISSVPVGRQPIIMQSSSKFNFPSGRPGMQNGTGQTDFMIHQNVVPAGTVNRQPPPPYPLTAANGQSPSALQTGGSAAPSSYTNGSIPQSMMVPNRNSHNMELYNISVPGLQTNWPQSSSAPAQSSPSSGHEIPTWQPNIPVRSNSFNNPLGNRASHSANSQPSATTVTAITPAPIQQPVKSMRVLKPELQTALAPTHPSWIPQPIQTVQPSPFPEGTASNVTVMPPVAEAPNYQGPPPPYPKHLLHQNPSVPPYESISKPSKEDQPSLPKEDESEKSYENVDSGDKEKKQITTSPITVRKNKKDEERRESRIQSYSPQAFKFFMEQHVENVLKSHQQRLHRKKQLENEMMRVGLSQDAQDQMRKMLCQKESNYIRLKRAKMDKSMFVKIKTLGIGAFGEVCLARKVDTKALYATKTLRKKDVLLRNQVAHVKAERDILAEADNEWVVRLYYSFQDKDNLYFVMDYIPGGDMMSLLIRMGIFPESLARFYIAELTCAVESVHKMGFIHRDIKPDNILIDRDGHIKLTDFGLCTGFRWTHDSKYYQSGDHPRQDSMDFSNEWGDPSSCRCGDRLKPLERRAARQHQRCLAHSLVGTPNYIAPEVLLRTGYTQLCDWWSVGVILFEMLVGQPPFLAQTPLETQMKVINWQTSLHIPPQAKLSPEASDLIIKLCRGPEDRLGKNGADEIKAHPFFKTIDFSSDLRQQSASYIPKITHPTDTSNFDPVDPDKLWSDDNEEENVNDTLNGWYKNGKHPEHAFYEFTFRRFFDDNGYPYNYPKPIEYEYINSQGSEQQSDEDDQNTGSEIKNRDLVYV
Kind of assay: Inhibition of LATS1 conserved Lys1 (ALYATKTLR) in human PBMC at 0.1 uM.

Sequence of Ribosomal protein S6 kinase alpha-3 (Homo sapiens) (P51812 whole entry, the tested form may be a part): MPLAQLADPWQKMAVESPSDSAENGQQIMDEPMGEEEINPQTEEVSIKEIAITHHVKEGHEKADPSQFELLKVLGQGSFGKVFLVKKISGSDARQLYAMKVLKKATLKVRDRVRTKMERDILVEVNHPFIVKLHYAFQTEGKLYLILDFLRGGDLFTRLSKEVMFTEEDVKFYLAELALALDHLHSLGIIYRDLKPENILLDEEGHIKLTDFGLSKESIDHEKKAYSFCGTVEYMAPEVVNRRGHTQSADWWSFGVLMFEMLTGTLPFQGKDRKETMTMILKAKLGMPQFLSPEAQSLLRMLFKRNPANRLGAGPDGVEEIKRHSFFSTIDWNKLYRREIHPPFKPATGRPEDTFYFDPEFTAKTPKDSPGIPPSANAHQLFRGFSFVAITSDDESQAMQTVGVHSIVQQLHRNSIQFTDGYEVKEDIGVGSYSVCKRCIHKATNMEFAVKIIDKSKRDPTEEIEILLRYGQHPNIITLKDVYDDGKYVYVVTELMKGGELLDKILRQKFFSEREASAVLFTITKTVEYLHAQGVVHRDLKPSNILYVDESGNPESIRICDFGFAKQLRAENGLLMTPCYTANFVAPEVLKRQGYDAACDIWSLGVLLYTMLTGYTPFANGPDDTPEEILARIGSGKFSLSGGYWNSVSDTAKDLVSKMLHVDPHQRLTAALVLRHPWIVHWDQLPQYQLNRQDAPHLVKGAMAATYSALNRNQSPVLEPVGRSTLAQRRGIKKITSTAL
Sequence of Dual specificity mitogen-activated protein kinase kinase 1 (Homo sapiens) (Q02750 whole entry): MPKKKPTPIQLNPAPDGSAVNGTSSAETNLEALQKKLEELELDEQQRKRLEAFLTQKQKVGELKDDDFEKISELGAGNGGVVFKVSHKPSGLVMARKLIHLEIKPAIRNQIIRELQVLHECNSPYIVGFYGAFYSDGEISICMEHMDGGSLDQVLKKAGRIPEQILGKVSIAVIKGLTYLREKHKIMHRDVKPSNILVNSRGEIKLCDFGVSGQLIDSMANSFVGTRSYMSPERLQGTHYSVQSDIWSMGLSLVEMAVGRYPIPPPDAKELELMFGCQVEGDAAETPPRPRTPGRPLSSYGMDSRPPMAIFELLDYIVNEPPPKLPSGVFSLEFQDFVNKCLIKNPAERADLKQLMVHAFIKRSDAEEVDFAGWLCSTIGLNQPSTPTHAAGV
Sequence of Protein kinase C beta type (Homo sapiens) (P05771 2-671 limits assumed): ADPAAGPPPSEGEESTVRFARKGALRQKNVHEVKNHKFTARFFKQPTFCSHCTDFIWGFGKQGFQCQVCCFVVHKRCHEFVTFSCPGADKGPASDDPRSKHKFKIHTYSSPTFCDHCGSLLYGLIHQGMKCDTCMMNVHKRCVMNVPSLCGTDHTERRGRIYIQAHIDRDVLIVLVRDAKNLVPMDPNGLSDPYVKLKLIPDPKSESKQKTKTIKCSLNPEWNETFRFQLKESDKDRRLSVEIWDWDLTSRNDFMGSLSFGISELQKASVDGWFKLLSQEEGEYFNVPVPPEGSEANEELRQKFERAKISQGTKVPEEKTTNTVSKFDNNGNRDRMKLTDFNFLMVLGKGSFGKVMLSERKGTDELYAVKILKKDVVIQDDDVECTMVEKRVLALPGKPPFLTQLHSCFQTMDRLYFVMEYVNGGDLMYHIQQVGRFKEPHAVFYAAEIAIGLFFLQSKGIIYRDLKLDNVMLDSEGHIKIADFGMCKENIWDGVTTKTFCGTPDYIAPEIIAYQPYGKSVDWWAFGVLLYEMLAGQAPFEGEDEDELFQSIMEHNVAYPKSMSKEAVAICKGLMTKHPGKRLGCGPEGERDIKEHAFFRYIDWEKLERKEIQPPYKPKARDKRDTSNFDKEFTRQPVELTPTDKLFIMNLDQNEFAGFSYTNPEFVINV
Sequence of STE20-like serine/threonine-protein kinase (Homo sapiens) (Q9H2G2 whole entry, looked up): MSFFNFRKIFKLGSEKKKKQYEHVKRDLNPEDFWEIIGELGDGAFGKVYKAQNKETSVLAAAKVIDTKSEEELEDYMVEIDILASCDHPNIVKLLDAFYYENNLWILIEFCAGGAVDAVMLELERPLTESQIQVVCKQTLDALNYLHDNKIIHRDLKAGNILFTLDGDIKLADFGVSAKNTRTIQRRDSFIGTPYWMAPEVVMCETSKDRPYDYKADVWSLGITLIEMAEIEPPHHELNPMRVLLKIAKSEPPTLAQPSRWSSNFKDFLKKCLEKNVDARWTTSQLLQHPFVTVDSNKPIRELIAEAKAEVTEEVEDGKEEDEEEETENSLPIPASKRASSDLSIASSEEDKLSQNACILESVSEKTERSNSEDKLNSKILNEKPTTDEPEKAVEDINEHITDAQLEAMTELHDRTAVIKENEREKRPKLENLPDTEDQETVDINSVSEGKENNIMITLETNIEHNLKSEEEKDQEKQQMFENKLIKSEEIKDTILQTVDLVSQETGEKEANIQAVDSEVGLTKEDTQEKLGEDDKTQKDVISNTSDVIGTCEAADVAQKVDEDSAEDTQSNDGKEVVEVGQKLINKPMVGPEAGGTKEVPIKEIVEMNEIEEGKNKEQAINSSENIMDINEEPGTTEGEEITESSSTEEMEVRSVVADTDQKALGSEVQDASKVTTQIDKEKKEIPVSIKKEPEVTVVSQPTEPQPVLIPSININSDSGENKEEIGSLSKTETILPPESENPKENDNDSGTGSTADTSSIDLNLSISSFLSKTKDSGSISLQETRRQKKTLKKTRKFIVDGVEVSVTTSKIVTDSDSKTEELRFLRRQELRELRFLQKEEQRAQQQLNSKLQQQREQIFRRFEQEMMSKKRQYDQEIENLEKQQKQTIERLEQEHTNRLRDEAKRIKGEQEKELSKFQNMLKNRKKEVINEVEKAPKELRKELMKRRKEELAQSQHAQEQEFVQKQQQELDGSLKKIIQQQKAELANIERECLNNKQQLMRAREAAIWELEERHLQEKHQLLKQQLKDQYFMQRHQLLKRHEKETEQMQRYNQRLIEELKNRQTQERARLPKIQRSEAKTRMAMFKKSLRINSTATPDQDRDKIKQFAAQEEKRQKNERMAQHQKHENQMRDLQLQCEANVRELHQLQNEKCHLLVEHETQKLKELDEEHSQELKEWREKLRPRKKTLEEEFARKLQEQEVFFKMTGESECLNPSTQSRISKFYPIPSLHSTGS
Sequence of Ribosomal protein S6 kinase beta-2 (Homo sapiens) (Q9UBS0 whole entry, the tested form may be a part): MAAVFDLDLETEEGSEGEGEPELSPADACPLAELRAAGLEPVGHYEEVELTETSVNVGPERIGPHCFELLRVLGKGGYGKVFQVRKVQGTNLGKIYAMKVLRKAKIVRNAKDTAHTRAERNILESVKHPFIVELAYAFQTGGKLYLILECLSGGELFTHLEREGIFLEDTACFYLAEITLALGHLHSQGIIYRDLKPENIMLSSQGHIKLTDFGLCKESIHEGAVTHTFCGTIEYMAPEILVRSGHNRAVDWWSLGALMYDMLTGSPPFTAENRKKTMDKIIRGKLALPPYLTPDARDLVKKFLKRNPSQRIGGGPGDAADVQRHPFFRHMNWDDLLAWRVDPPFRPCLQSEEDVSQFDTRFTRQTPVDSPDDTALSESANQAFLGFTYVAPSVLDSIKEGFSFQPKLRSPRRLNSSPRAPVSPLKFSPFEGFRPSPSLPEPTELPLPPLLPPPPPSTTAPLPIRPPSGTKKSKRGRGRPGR

Regarding `CC(C)n1cc(-c2cc(-c3ccc(CN4CCOCC4)cc3)cnc2N)nn1`, the inhibition was -7.4% in assay [1]; 0.3% in assay [2]; -3.3% in assay [3]; -5.6% in assay [4]; -7.8% in assay [5]; 3.1% in assay [6]. Also, the inhibition in assay [7] worked out at 23.1%.
